Experimental data from patent US20040219208A1, “Sustained-release medicines” (priority 2001, published 2004).

Test: Drug concentration in plasma of rat after subcutaneous administration of microcapsule
Assay type: in vivo
Details: sc, 25 mg microcapsule of Example 1, subcutaneous at rear neck, 9 week old male SD rat, plasma from tail vein, n = 4; for concentration at 1 week: after 1 week; for concentration at 2 weeks: after 2 weeks; for concentration at 3 weeks: after 3 weeks; for concentration at 1 day: after 1 day
Protocol: 25 mg of the microcapsule obtained in Example 1 was dispersed in 0.1 mL of dispersing medium (a solution in which 5 mg of sodium carboxymethylcellulose, 1 mg of Polysorbate 80 and 50 mg of mannitol were dissolved in 1 mL of distilled water), and this was subcutaneously administered to a 9 week old male SD rat with 23G injection needle at a rear neck part. The concentrations of drugs in plasma obtained by taking from a tail vein with time after administration were measured.

For `CCOc1nc2cccc(C(=O)O)c2n1Cc1ccc(-c2ccccc2-c2nnn[nH]2)cc1` [Compound B, 2-ethoxy-1-[[2′-(1H-tetrazol-5-yl)biphenyl-4-yl]methyl]benzimidazole-7-carboxylic acid], which concentration at 1 week is on record?
The concentration at 1 week was 238 ng/mL.

What about the concentration at 2 weeks of the same compound?
Its concentration at 2 weeks is 94 ng/mL.

What about the concentration at 3 weeks of the same compound?
The concentration at 3 weeks was 4 ng/mL.

And the concentration at 1 day?
The concentration at 1 day was 170 ng/mL.

For `CCc1ccc(CCOc2ccc(CC3SC(=O)NC3=O)cc2)nc1` (centres unmarked) [actos], which concentration at 1 week is on record?
Its concentration at 1 week is 226 ng/mL.

What about the concentration at 2 weeks of the same compound?
Its concentration at 2 weeks is 155 ng/mL.

What about the concentration at 3 weeks of the same compound?
Its concentration at 3 weeks is 30 ng/mL.

What about the concentration at 1 day of the same compound?
Its concentration at 1 day is 313 ng/mL.
